This is an account of results in patent US8178506B2, “Oligomeric compounds and compositions for use in modulation of small non-coding RNAs” (Regulus Therapeutics Inc., priority 2003, dated 2012).

In the oligonucleotide strings, read from the 5' end, every base follows the letter of its sugar. An asterisk marks phosphorothioate; unmarked linkages are phosphodiester. Other units and linkages are bracketed, terminal groups are in braces. A string of capitals states the bases alone. e = 2'-O-(2-methoxyethyl) (MOE); [5mC] = 5-methylcytosine

One series deals with PEPCK-c. As to the kind of experiment: PEPCK-c mRNA expression in HepG2 cells. The format is cell-based, human. The following applies: 100 nM; for decrease in PEPCK-c mRNA: HepG2, basal (no insulin).
In a further series the test system is HuVECs. The experiment in a line: Endothelial tube formation assay in HuVECs. The note with it: for tube formation: 75 nM; for % Activity Relative to UTC (tube formation): 75 nM oligomeric compound.
Another series relates to IL-12 mRNA. As to the kind of experiment: IL-12 mRNA in LPS-activated primary murine macrophages. The format is cell-based, mouse. The following applies: normalized to LPS-treated cells without oligomeric compound. As to the method:
To investigate the role of miRNAs in the immune response, oligomeric compounds of the present invention targeting miRNAs were tested for their effects upon lipopolysaccharide (LPS)-activated primary murine macrophages. Macrophages participate in the immune response, for example, in the recognition and phagocytosis of microorganisms, including bacteria. Interferon-gamma (IFN-gamma) released by helper T cells is one type of signal required for macrophage activation, and LPS can serve as an additional stimulus. LPS is a component of the gram-negative bacterial cell wall and acts as an agonist for toll-like receptor 4 (TLR4), the primary LPS receptor expressed by macrophages. The proinflammatory cytokines interleukin-12 (IL-12) and interleukin-6 (IL-6) are induced by LPS treatment of macrophages, thus the expression of the mRNAs encoding these cytokines was used to evaluate the response of macrophages to LPS following treatment with oligomeric compounds targeting miRNAs.
Macrophages were isolated as follows. Female C57B1/6 mice (Charles River Laboratories, Wilmington, Mass.) were injected intraperitoneally with 1 ml 3% thioglycollate broth (Sigma-Aldrich, St. Louis, Mo.), and peritoneal macrophage cells were isolated by peritoneal lavage 4 days later. The cells were plated in 96-well plates at 40,000 cells/well for one hour in serum-free RPMI adjusted to contain 10 mM HEPES (Invitrogen Life Technologies, Carlsbad, Calif.), allowed to adhere, then non-adherent cells were washed away and the media was replaced with RPMI containing 10 mM HEPES, 10% FBS and penicillin/streptomycin (“complete” RPMI; Invitrogen Life Technologies, Carlsbad, Calif.).
Oligomeric compounds were introduced into the cells using the non-liposomal transfection reagent FuGENE 6 Transfection Reagent (Roche Diagnostics Corp., Indianapolis, Ind.). Oligomeric compound was mixed with FuGENE 6 in 1 mL of serum-free RPMI to achieve a concentration of 10 μL FuGENE per 1000 nM oligomeric compound. The oligomeric compound/FuGENE complex was allowed to form at room temperature for 20 minutes. This mixture was diluted to the desired concentration of oligomeric compound by the addition of the appropriate volume of complete RPMI. The final ratio of FuGENE 6 to oligomeric compound was 1 μL of FuGENE 6 per 100 nM oligomeric compound. A volume of 100 μL of oligomeric compound/FuGENE/RPMI was added to each well of the 96-well plate in which the macrophages were cultured. Each oligomeric compound treatment was repeated in triplicate.
Following oligomeric compound treatment, cells were stimultated with LPS. Cells were cultured in the presence of the transfection complex for approximately 24 to 28 hours at 37° C. and 5% CO2, after which the medium containing the transfection complex was removed from the cells, and complete RPMI containing 100 ng/mL LPS (Sigma-Aldrich Corp., St. Louis, Mo.) was added to the cells for a period of approximately 24 hours. Control samples included (1) cells receiving no oligomeric compound, stimulated with LPS and (2) cells receiving neither oligomeric compound nor LPS treatment.
In another embodiment, following oligomeric compound treatment, cells were first activated by IFN-gamma, to amplify the response to LPS. Cells were cultured in the presence of the transfection complex for approximately 24 hours at 37° C. and 5% CO2, at which point the medium containing the transfection complex was removed from the cells, and complete RPMI containing 100 ng/mL recombinant mouse IFN-gamma (R&D Systems, Minneapolis, Minn.) was added to the cells. After the 4 hour treatment with INF-gamma, cells were treated with 100 ng/mL LPS for approximately 24 hours. Control samples included (1) cells receiving no oligomeric compound, stimulated with LPS and (2) cells receiving neither oligomeric compound nor LPS treatment. […]

The subject of series [1] is BJ, B16-F10, T47D, T47Dp53 and HeLa cells. As to the kind of experiment: Cell cycle assay (propidium iodide flow cytometry), cell line panel. The following applies: 150 nM oligomeric compound, 4.5 μg/ml LIPOFECTIN, after 72 hours, propidium iodide flow cytometry. Format: cell-based.
For a further series, the system named is HeLa cells. The experiment in a line: Cell cycle assay in HeLa cells. Format: cell-based, human. The note with it: HeLa cells, 150 nM oligomeric compound.
The test system of the next series is adipocytes. As to the kind of experiment: Triglyceride accumulation assay in adipocytes. The format is cell-based, human. The note with it: differentiating adipocytes transfected with oligomeric compound.
In another series the test system is aP2. The experiment in a line: aP2 mRNA expression in adipocytes (real-time PCR). Format: cell-based, human. The note with it: differentiating adipocytes transfected with oligomeric compound; for aP2 mRNA: Table 75. (Real-time PCR tracks product formation cycle by cycle.)
A further series deals with HSL. As to the kind of experiment: HSL mRNA expression in adipocytes (real-time PCR). Format: cell-based, human. The following applies: differentiating adipocytes transfected with oligomeric compound.
A further series relates to Glut4. As to the kind of experiment: Glut4 mRNA expression in adipocytes (real-time PCR). Format: cell-based, human. The following applies: differentiating adipocytes transfected with oligomeric compound.
The test system of a further series is PPARγ. The experiment in a line: PPARγ mRNA expression in adipocytes (real-time PCR). Format: cell-based, human. The following applies: differentiating adipocytes transfected with oligomeric compound.
Setting [2] is: 24 hours, relative to untreated control (UTC = 100).
[3] abbreviates: 48 hours after treatment, relative to untreated control (UTC=100).

As to “CAGTGAATTCTACCAGTGCCATA (anti-miR; chemistry not fully specified) [ISIS 327899]”, the “decrease in PEPCK-c mRNA” value in the series on PEPCK-c was determined as 58%. The tube formation result with HuVECs is “suppressed tube formation”.
On to “327883 (antisense e[5mC]*eA*eG*eA*eA*e[5mC]*eT*eT*eA*eG*e[5mC]*e[5mC]*eA*e[5mC]*eT*eG*eT*eG*eA*eA) [compound 327883]”, for which, in the series on IL-12 mRNA (300 nM oligomeric compound and LPS, no IFN-gamma pretreatment, single experiment), the “IL-12 mRNA expression, −IFN % UTC” value came out at 266 % UTC. Moreover, the “IL-12 mRNA expression, +IFN % UTC” value with IL-12 mRNA (300 nM oligomeric compound, stimulation with IFN-gamma and LPS, average of 2 experiments) worked out at 39 % UTC. In addition, in the series on HuVECs (Table 56), the “% Activity Relative to UTC (tube formation)” value (“% Activity Relative to UTC” below) turned out to be 92.9%.
As to “GAGACCCAGTAGCCAGATGTAGCT (chemistry not given here) [ISIS 327920]”, the “reduction of PEPCK-c mRNA expression” value in the series with PEPCK-c (HepG2, 1 nM insulin) is reported as 41%. Also, the “decrease in PEPCK-c mRNA” value in the series with PEPCK-c was 48%. Moreover, the tube formation entry in the series on HuVECs is “suppressed tube formation”.
On to “CGCGTACCAAAAGTAATAATG (anti-miR; chemistry not fully specified) [ISIS 327886]”, for which the “decrease in PEPCK-c mRNA” value with PEPCK-c amounted to 39%. For the same substance, the tube formation result with HuVECs was “suppressed tube formation”.
As to “327908 (antisense e[5mC]*eA*eA*eT*eG*e[5mC]*eA*eA*e[5mC]*eT*eA*e[5mC]*eA*eA*eT*eG*e[5mC]*eA*e[5mC]) [compound 327908]”, in series [1], the “G1 (percentage of cells in phase of the cell cycle)” value turned out to be 55.4%, the “G2/M (percentage of cells in phase of the cell cycle)” value came to 15.3%, the “S (percentage of cells in phase of the cell cycle)” value was found to be 29.2% and the “SubG1 (percentage of cells in phase of the cell cycle)” value stood at 5.6%. Further, the “aneuploid (percentage of cells)” value in [1] is on record as 13.1%. In the series with HeLa cells (setting [2]), the “% cells aneuploid” value was 114%, the “% cells in cell cycle phase G1” value came to 98%, the “% cells in cell cycle phase G2/M” value worked out at 106% and the “% cells in cell cycle phase S” value worked out at 99%. In addition, in the series on HeLa cells (setting [2]), the “% cells in cell cycle phase subG1” value is given as 138%. Also, in the series with HeLa cells (setting [3]), the “% cells in cell cycle phase: G1” value was determined as 99%, the “% cells in cell cycle phase: G2/M” value was found to be 105%, the “% cells in cell cycle phase: S” value amounted to 98% and the “% cells in cell cycle phase: aneuploid” value worked out at 93%. The “% cells in cell cycle phase: subG1” value with HeLa cells (setting [3]) came out at 61%. The “% Activity Relative to UTC” value in the series with HuVECs (Table 57) was determined as 103.5%.
Take “327937 (antisense eG*eA*eT*eT*e[5mC]*eA*e[5mC]*eA*eA*e[5mC]*eA*e[5mC]*e[5mC]*eA*eG*e[5mC]*eT) [compound 327937]”: in the series with adipocytes, the “TG (triglyceride accumulation)” value is 81 percentage of untreated control (UTC). Moreover, in the series on aP2, the “AP2 mRNA” value is 76 percentage of untreated control (UTC). Moreover, in the series on HSL, the “HSL mRNA” value is 77 percentage of untreated control (UTC). Besides, the “GLUT4 mRNA” value in the series with Glut4 is 63 percentage of untreated control (UTC). In addition, the “PPAR gamma mRNA” value in the series on PPARγ was 92 percentage of untreated control (UTC). Besides, the “% Activity Relative to UTC” value in the series on HuVECs (Table 58) was determined as 88.9%.
Regarding “327879 (antisense eA*eA*e[5mC]*eA*eA*eA*eA*eT*e[5mC]*eA*e[5mC]*eT*eA*eG*eT*e[5mC]*eT*eT*e[5mC]*e[5mC]*eA) [compound 327879]”, in the series with adipocytes (Table 75), the “TG (triglyceride accumulation)” value is given as 59 percentage of untreated control (UTC). For the same substance, the “aP2 mRNA” value in the series on aP2 is recorded as 103 percentage of untreated control (UTC). The “HSL mRNA” value in the series on HSL (Table 75) is 103 percentage of untreated control (UTC). Besides, the “GLUT4 mRNA” value in the series with Glut4 (Table 75) is listed as 99 percentage of untreated control (UTC). In addition, the “PPAR gamma mRNA” value with PPARγ (Table 75) is 81 percentage of untreated control (UTC). Further, the “% Activity Relative to UTC” value in the series on HuVECs (Table 56) worked out at 71.4%.
In the case of “327914 (antisense eG*e[5mC]*e[5mC]*e[5mC]*eT*eT*eT*eT*eA*eA*e[5mC]*eA*eT*eT*eG*e[5mC]*eA*e[5mC]*eT*eG) [compound 327914]”, in [1], the “G1 (percentage of cells in phase of the cell cycle)” value is 55.8%, the “G2/M (percentage of cells in phase of the cell cycle)” value is given as 15.3%, the “S (percentage of cells in phase of the cell cycle)” value is reported as 28.9% and the “SubG1 (percentage of cells in phase of the cell cycle)” value was determined as 8.5%. The “aneuploid (percentage of cells)” value in [1] worked out at 16.2%. In addition, the “% Activity Relative to UTC” value with HuVECs (Table 57) is reported as 82.8%.
In the case of “327909 (antisense e[5mC]*e[5mC]*e[5mC]*eA*eA*e[5mC]*eA*eA*e[5mC]*eA*eT*eG*eA*eA*eA*e[5mC]*eT*eA*e[5mC]*e[5mC]*eT*eA) [compound 327909]”, the “TG (triglyceride accumulation)” value in the series with adipocytes is reported as 132 percentage of untreated control (UTC). In addition, the “AP2 mRNA” value in the series on aP2 is listed as 88 percentage of untreated control (UTC). Moreover, in the series with HSL, the “HSL mRNA” value is on record as 130 percentage of untreated control (UTC). In the series with Glut4, the “GLUT4 mRNA” value is 132 percentage of untreated control (UTC). For the same substance, the “PPAR gamma mRNA” value in the series on PPARγ is 96 percentage of untreated control (UTC). In series [1], the “G1 (percentage of cells in phase of the cell cycle)” value is 52.6%, the “G2/M (percentage of cells in phase of the cell cycle)” value is 17.3%, the “S (percentage of cells in phase of the cell cycle)” value is 30.1% and the “SubG1 (percentage of cells in phase of the cell cycle)” value stood at 7.9%. Further, the “aneuploid (percentage of cells)” value in series [1] was 16.3%. Besides, in the series with HuVECs (Table 57), the “% Activity Relative to UTC” value is listed as 96.6%.
For “327966 (antisense eA*eT*e[5mC]*e[5mC]*eA*eA*eT*e[5mC]*eA*eG*eT*eT*e[5mC]*e[5mC]*eT*eG*eA*eT*eG*e[5mC]*eA*eG*eT*eA) [compound 327966]”, the “TG (triglyceride accumulation)” value in the series on adipocytes (Table 75) is reported as 52 percentage of untreated control (UTC). The “aP2 mRNA” value in the series with aP2 is recorded as 53 percentage of untreated control (UTC). Also, the “HSL mRNA” value with HSL (Table 75) is listed as 56 percentage of untreated control (UTC). Also, the “GLUT4 mRNA” value in the series with Glut4 (Table 75) is 43 percentage of untreated control (UTC). Also, the “PPAR gamma mRNA” value in the series on PPARγ (Table 75) is 77 percentage of untreated control (UTC). Further, in the series with HuVECs (Table 59), the “% Activity Relative to UTC” value turned out to be 40.0%.
